In patent US20120288482A1, “THERAPEUTIC AGENT (Y-39983) FOR CORNEAL ENDOTHELIAL DYSFUNCTION” (priority 2009, published 2012):

Legend:
corneal endothelium = settings: instillation of 10 mM; cited from earlier work
[1] = system: rabbit corneal endothelial cells; experiment: Production of cultured corneal endothelial cell sheet for transplantation, ZO-1 and Na+/K+ ATPase immunostaining (Example 7); type: cell-based; settings: for coverage of the sheet with cells / expression of Na+/K+ ATPase / expression of ZO-1: 48 hours after seeding
Experimental: In this Example, rabbit corneal endothelial cells prepared in the same manner as in Example 4 were used.
In this Example, moreover, test substances and control substance prepared in the same manner as in Example 4 were used.
The rabbit corneal endothelial cells were seeded on Vitrigel™ (Asahi Glass) at a division ratio of 1:1, and a cultured corneal endothelial cell sheet for transplantation was produced. When producing the corneal endothelial cell sheet, 0.95 μM compound (I), 10 μM Y-27632 or 0.04% DMSO was added. The obtained corneal endothelial cell sheet was subjected to fluorescence immunostaining with ZO-1 and Na^+/K^+ ATPase, which are functional proteins of corneal endothelial cells, and expression was confirmed.
The corneal endothelial cell sheet was fixed with 95% ethanol (−30° C.) for 10 min, washed with PBS, and treated with 0.5% Triton X-100/PBS for 5 min. Then, it was treated with 1% BSA/PBS for 1 hour, and treated overnight with anti-ZO-1 antibody (Invitrogen, Cat. #339100) or anti-Na^+/K^+ ATPase antibody (Millipore, Cat. #C464.6). After washing with PBS, it was treated with Alexa-488 labeling secondary antibody for 1 hour. After washing with PBS, mounting medium (Vectashield (registered trade mark)) containing DAPI was added dropwise to the sheet, and the sheet was sealed with cover glass. The image was taken with a fluorescence microscope to confirm expression of ZO-1 and Na^+/K^+ ATPase. The immunostaining was performed both 48 hours and 14 days after the seeding (FIG. 10 and FIG. 11).

[2] = system: cultured corneal endothelial cells; settings: cited from earlier work
[3] = system: cultured monkey corneal endothelial cells; settings: in vitro; cited from earlier work
[4] = system: rabbit corneal endothelial cells; experiment: Wound healing model of cultured corneal endothelial cells (Example 5); type: cell-based
Experimental: In this Example, rabbit corneal endothelial cells prepared in the same manner as in Example 4 were used. In this Example, moreover, test substances and control substance prepared in the same manner as in Example 4 were used. Collected rabbit corneal endothelial cells were diluted with a culture medium (about 4 ml, DMEM (Invitrogen, Cat. #12320-032), 10% FBS, 2 ng/mL bFGF (Invitrogen, Cat. #13256-029) and 1% penicillin/streptomycin (Invitrogen, Cat. #15070-063)), and seeded at a division ratio of 1:4 by 2 ml per well in a 6 well plate (Corning Incorporated, Cat. #3516). The cells were incubated to confluent under conditions of 37° C. and 5% CO2. Wound was created in the confluent cells using 1000 μL chip (Molecular BioProducts, 2279). Then, each medicament was added to the culture medium to a final concentration of 0.09, 0.32, 0.95, 3.16 and 9.47 μM compound (I), 10 μM Y-27632 and 10 μM Fasudil. As a control, DMSO was added to a final concentration of 0.04%. At 6 hours, 12 hours and 24 hours after addition of each medicament, the width of the wound was photographed over time, and the width of the wound was evaluated by image analysis.

[5] = system: corneal endothelial loss model; experiment: Rabbit corneal endothelial loss model, high concentration instillation (Example 2); type: in vivo; settings: 0.05 w/v % (1.58 mM) instillation, 6 times a day, 2 days
[6] = system: rabbit corneal endothelial cells; experiment: Adhesion of cultured corneal endothelial cells to culture plate (Example 6); type: cell-based; settings: 3 hours after seeding
Experimental: In this Example, rabbit corneal endothelial cells prepared in the same manner as in Example 4 were used. In this Example, moreover, test substances and control substance prepared in the same manner as in Example 4 were used. The collected rabbit corneal endothelial cells were diluted, and a culture medium (about 4 ml, DMEM (Invitrogen, Cat. #12320-032), 10% FBS, 2 ng/mL bFGF (Invitrogen, Cat. #13256-029) and 1% penicillin/streptomycin (Invitrogen, Cat. #15070-063)) was added to the cells. Then, each medicament was added to the culture medium to final concentrations of 0.09, 0.32, 0.95, 3.16 and 9.47 μM compound (I), 10 μM Y-27632 and 10 μM Fasudil. As a control, DMSO was added to a final concentration of 0.04%. These cells were seeded in a 96 well plate (Corning Incorporated, Cat. #3595) at 1000 cells/well. After 3 hours from the seeding, suspended cells were removed, and adhered cells were counted by CellTiter-Glo (registered trade mark) Luminescent Cell Viability Assay (promega Cat. #G7572).

Row | SMILES | wound healing of corneal endothelium (corneal endothelium) | coverage of the sheet with cells ([1]; 10 μM) | expression of Na+/K+ ATPase ([1]; 10 μM) | expression of ZO-1 ([1]; 10 μM) | cell adhesion [2] | apoptosis [3] | cell adhesion [3] | cell cycle [3] | wound healing effect ([4]; 0.95 μM, student's t-test) | wound width ([4]; 9.47 μM, versus control) | wound width ([4]; 0.09-3.16 μM, 24 hours after addition, Dunnett's test) | concentration showing a wound healing effect ([4]; in vitro wound healing model, Example 5) [µM] | coverage of the sheet with cells ([1]; 0.95 μM) | expression of Na+/K+ ATPase ([1]; 0.95 μM) | expression of ZO-1 ([1]; 0.95 μM) | time in which a cultured corneal endothelial cell sheet for transplantation can be produced ([1]; from the addition to culture medium) [h] | effect in rabbit corneal endothelial loss model [5] | number of adherent cells ([6]; 0.32 μM) | concentration at which the number of adherent cells reached plateau [6] | number of adherent cells ([6]; all addition groups (0.09-9.47 μM))
1 | C[C@@H](N)[C@H]1CC[C@H](C(=O)Nc2ccncc2)CC1 [Y-27632, reference compound] | promotes wound healing of corneal endothelium | partially uncovered with cells | found between cells in all | found between cells uniformly | promoting cell adhesion | suppression of apoptosis | promotion of cell adhesion | promotion of cell cycle | – | – | – | – | – | – | – | – | – | – | – | –
2 | C[C@@H](N)c1ccc(C(=O)Nc2ccnc3[nH]ccc23)cc1.Cl [compound (I), (R)-(+)-N-(1H-pyrrolo[2,3-b]pyridin-4-yl)-4-(1-aminoethyl)benzamide monohydrochloride] | – | – | – | – | – | – | – | – | showed a wound healing effect from the early stages of the addition | no statistically significant difference from the control group | significantly decreased | 0.09 to 3.16 | cells were adhered to the whole surface of the sheet | found between cells in all | found between cells uniformly | 48 | effect can be confirmed | almost the same level as 10 μM Y-27632 | not less than 0.32 μM | increased the number of adherent cells
